This assay has as its system Dengue-2 (Strain New Guinea C). Put plainly: Viral yield assay in Vero cells. The conditions noted are these: Dengue virus, read-out: Activity (anti-dengue 2 viral activity, EC50 class). Type of assay: cell-based. On the procedure: Compounds that were active in the primary screen were tested for activity in viral yield assays. […] Vero cells in 12-well plates were infected with dengue-2 virus at a multiplicity of infection (MOI) of 0.1, treated with compound (or DMSO as a control), incubated at 37° C., harvested 48 hours post infection and titered on Vero cells as described above. The EC50 was calculated through ExcelFit. Activities against other serotypes of dengue virus were determined in a similar way.

[1] abbreviates: Vero cells, MOI 0.1, harvested 48 hours post infection.

Each structure is given as a SMILES string. Where two headings read alike, the source gives them in different places.

Regarding `Cc1ccc2sc(-c3ccc(NC(=O)c4ccccc4Cl)cc3)nc2c1` [Compound 49, 2-Chloro-N-[4-(5-methyl-benzothiazol-2-yl)-phenyl]-benzamide], for the setting “Vero, 48 h”, the concentration giving a half-maximal response (EC50) is greater than 25 µM.
Take `Cc1ccc(-c2nc3ccccc3s2)cc1NC(=O)c1ccc(F)cc1` [Compound 50, N-(5-Benzothiazol-2-yl-2-methyl-phenyl)-4-fluoro-benzamide]: the EC50 under setting [1] is greater than 25 µM.
The same measure, in the same setting: to `COc1cc(C(=O)Nc2cc(-c3nc4ccccc4s3)ccc2C)cc(OC)c1OC` [Compound 51, N-(5-Benzothiazol-2-yl-2-methyl-phenyl)-3,4,5-trimethoxy-benzamide] belongs greater than 25 µM.
Same read-out and setting: with `COc1ccccc1C(=O)Nc1cc(-c2nc3ccccc3s2)ccc1C` [Compound 52, N-(5-Benzothiazol-2-yl-2-methyl-phenyl)-2-methoxy-benzamide] the figure was greater than 25 µM; with `O=C(Nc1ccc(O)c(-c2nc3ccccc3s2)c1)c1ccc([N+](=O)[O-])cc1` [Compound 53, N-(3-Benzothiazol-2-yl-4-hydroxy-phenyl)-4-nitro-benzamide], greater than 25 µM; with `O=C(Nc1ccc(-c2nc3ccccc3s2)c(O)c1)c1ccccc1F` [Compound 54, N-(4-Benzothiazol-2-yl-3-hydroxy-phenyl)-2-fluoro-benzamide], greater than 25 µM.
The same measure, in the same setting: to `Cc1ccccc1C(=O)Nc1ccc(O)c(-c2nc3ccccc3s2)c1` [Compound 55, N-(3-Benzothiazol-2-yl-4-hydroxy-phenyl)-2-methyl-benzamide] belongs greater than 25 µM; to `O=C(Nc1ccc(O)c(-c2nc3ccccc3s2)c1)c1ccccc1` [Compound 56, N-(3-Benzothiazol-2-yl-4-hydroxy-phenyl)-benzamide], greater than 25 µM.
`O=C(Nc1ccc(O)c(-c2nc3ccccc3s2)c1)c1ccccc1F` [Compound 57, N-(3-Benzothiazol-2-yl-4-hydroxy-phenyl)-2-fluoro-benzamide]: the half-maximal effective concentration (EC50) under setting [1] is greater than 25 µM.
For the compound `COc1cccc(C(=O)Nc2ccc(O)c(-c3nc4ccccc4s3)c2)c1` [Compound 58, N-(3-Benzothiazol-2-yl-4-hydroxy-phenyl)-3-methoxy-benzamide], the half-maximal effective concentration (EC50) under setting [1] is greater than 25 µM.
For the compound `O=C(Nc1ccc(-c2nc3ccccc3s2)c(O)c1)c1ccccc1` [Compound 59, N-(4-Benzothiazol-2-yl-3-hydroxy-phenyl)-benzamide], the EC50 under setting [1] was greater than 25 µM.
Same read-out and setting: to `COc1ccc(C(=O)Nc2ccc(-c3nc4ccccc4s3)c(O)c2)cc1[N+](=O)[O-]` [Compound 60, N-(4-Benzothiazol-2-yl-3-hydroxy-phenyl)-4-methoxy-3-nitro-benzamide] belongs greater than 25 µM.
On the same count and under the same terms, to `O=C(Nc1ccc(O)c(-c2nc3ccccc3s2)c1)c1ccc(F)cc1` [Compound 61, N-(3-Benzothiazol-2-yl-4-hydroxy-phenyl)-4-fluoro-benzamide] belongs greater than 25 µM.
For `O=C(Nc1ccc(O)c(-c2nc3ccccc3s2)c1)c1cccc(F)c1` [Compound 62, N-(3-Benzothiazol-2-yl-hydroxy-phenyl)-3-fluoro-benzamide], the EC50 under setting [1] was greater than 25 µM.
Still for that read-out and setting: to `Cc1c(NC(=O)c2cc([N+](=O)[O-])ccc2Cl)cccc1-c1nc2ccccc2s1` [Compound 63, N-(3-Benzothiazol-2-yl-2-methyl-phenyl)-2-chloro-5-nitro-benzamide] belongs greater than 25 µM.
The same measure, in the same setting: with `COc1ccc(C(=O)Nc2cccc(-c3nc4ccccc4s3)c2C)cc1[N+](=O)O` [Compound 64, N-(3-Benzothiazol-2-yl-2-methyl-phenyl)-4-methoxy-3-nitro-benzamide] the figure was greater than 25 µM; with `Cc1c(NC(=O)c2ccc([N+](=O)[O-])cc2)cccc1-c1nc2ccccc2s1` [Compound 65, N-(3-Benzothiazol-2-yl-2-methyl-phenyl)-4-nitro-benzamide], greater than 25 µM.
Still for that read-out and setting: to `Cc1c(NC(=O)c2ccccc2F)cccc1-c1nc2ccccc2s1` [Compound 66, N-(3-Benzothiazol-2-yl-2-methyl-phenyl)-2-fluoro-benzamide] belongs greater than 25 µM.
As for `O=C(Nc1cc(-c2nc3ccccc3s2)ccc1Cl)c1ccccc1[N+](=O)[O-]` [Compound 67, N-(5-Benzothiazol-2-yl-2-chloro-phenyl)-2-nitro-benzamide], the half-maximal effective concentration (EC50) under setting [1] was greater than 25 µM.
Same read-out and setting: with `Cc1ccc(-c2nc3ccccc3s2)cc1NC(=O)c1ccccc1[N+](=O)O` [Compound 68, N-(5-Benzothiazol-2-yl-2-methyl-phenyl)-2-nitro-benzamide] the figure was greater than 25 µM; with `COc1cc(C(=O)Nc2cccc(-c3nc4ccccc4s3)c2C)cc(OC)c1OC` [Compound 69, N-(3-Benzothiazol-2-yl-2-methyl-phenyl)-3,4,5-trimethoxy-benzamide], greater than 25 µM; with `COc1cc(C(=O)Nc2cc(-c3nc4ccccc4s3)ccc2Cl)cc(OC)c1OC` [Compound 70, N-(5-Benzothiazol-2-yl-2-chloro-phenyl)-3,4,5-trimethoxy-benzamide], greater than 25 µM.
Regarding `Cc1ccccc1C(=O)Nc1cc(-c2nc3ccccc3s2)ccc1Cl` [Compound 71, N-(5-Benzothiazol-2-yl-2-chloro-phenyl)-2-methyl-benzamide], the EC50 under setting [1] is greater than 25 µM.
In the case of `O=C(Nc1ccc(O)c(-c2nc3ccccc3s2)c1)c1ccc2c(c1)OCCO2` [Compound 72, 2,3-Dihydro-benzo[1,4]dioxine-6-carboxylic acid (3-benzothiazol-2-yl-4-hydroxy-phenyl)-amide], the concentration giving a half-maximal response (EC50) under setting [1] was greater than 25 µM.
Still for that read-out and setting: to `Cc1c(NC(=O)c2ccc([N+](=O)[O-])cc2Cl)cccc1-c1nc2ccccc2s1` [Compound 73, N-(3-Benzothiazol-2-yl-2-methyl-phenyl)-2-chloro-4-nitro-benzamide] belongs greater than 25 µM; to `CCCOc1cccc(C(=O)Nc2cc(-c3nc4ccccc4s3)ccc2C)c1` [Compound 74, N-(5-Benzothiazol-2-yl-2-methyl-phenyl)-3-propoxy-benzamide], greater than 25 µM.
For the compound `Cc1ccc(-c2nc3ccccc3s2)cc1NC(=O)c1ccc2c(c1)OCCO2` [Compound 75, 2,3-Dihydro-benzo[1,4]dioxine-6-carboxylic acid (5-benzothiazol-2-yl-2-methyl-phenyl)-amide], under setting [1], the EC50 was greater than 25 µM.
On the same count and under the same terms, with `O=C(Nc1ccc(-c2nc3ccccc3s2)cc1)c1cccc(F)c1` [Compound 76, N-(4-Benzothiazol-2-yl-phenyl)-3-fluoro-benzamide] the figure was greater than 25 µM.
For `COc1c(Cl)cc(C(=O)Nc2cc(-c3nc4ccccc4s3)ccc2Cl)cc1Cl` [Compound 77, N-(5-Benzothiazol-2-yl-2-chloro-phenyl)-3,5-dichloro-4-methoxy-benzamide], the EC50 under setting [1] was greater than 25 µM.
On the same count and under the same terms, with `Cc1c(C(=O)Nc2ccc(-c3nc4ccccc4s3)c(O)c2)cccc1[N+](=O)[O-]` [Compound 78, N-(4-Benzothiazol-2-yl-3-hydroxy-phenyl)-2-methyl-3-nitro-benzamide] the figure was greater than 25 µM; with `O=C(Nc1ccc(-c2nc3ccccc3s2)cc1)c1c(F)cccc1F` [Compound 79, N-(4-Benzothiazol-2-yl-phenyl)-2,6-difluoro-benzamide], greater than 25 µM; with `CC(=O)Nc1ccc(C(=O)Nc2ccc(-c3nc4ccc(C)cc4s3)cc2)cc1` [Compound 80, 4-Acetylamino-N-[4-(6-methyl-benzothiazol-2-yl)-phenyl]-benzamide], greater than 25 µM.

The values are drawn from patent publication US8993604B2, “Treatment and prevention of dengue virus infections” (Siga Technologies, Inc., priority 2009, dated 2015).
